Experimental data reported in patent US9581577B2, “Miniaturized flow-through cell” (NATIONAL UNIVERSITY OF SINGAPORE, priority 2012, dated 2017).

What was measured:
[1] = Endoxifen permeation studies with MFtC, with or without permeation enhancers; assay type: in vitro ADME, rat; settings: for Flux / Lag time: MFtC, rat abdominal skin, mean ± SD, N = 3
Protocol: A fluorescence assay for endoxifen was established whereby endoxifen was converted to highly fluorescent phenanthrene derivatives following exposure to ultraviolet (UV) irradiation. A UV transilluminator (Bio Rad, USA) at λ=302 nm and an intensity of 866 μW/cm^2 was used for the conversion of endoxifen to its phenanthrene derivatives. The fluorescence emitted from the phenanthrene derivatives of endoxifen after various durations of UV exposure was determined with a microplate reader at a λex=260 nm and a λem=380 nm. Fluorescence measurements from non-UV exposed samples served as a control. The optimum duration of UV irradiation was determined with a 10 μg/ml solution of endoxifen. For all subsequent experiments, this duration of UV irradiation was fixed at the optimal time. The validated MFtC 5 mounted with rat abdominal skin was employed to determine the permeation profile of endoxifen. Donor solutions comprised of endoxifen (2 mg/ml) in PG with and without permeation enhancers (PEs) namely limonene, myristyl lactate and oleic acid at 0.5% (w/v) were prepared. All solutions were sonicated for 3 min to ensure dissolution of endoxifen and PEs. Each donor compartment 220 was filled with 200 μl of donor solution. Endoxifen was allowed to permeate through the rat abdominal skin over 48 hr. The experiments were performed in triplicates. Samples of permeated solutions were collected at specific time intervals and stored at −20° C. until analysis. The flux at steady state (Jss) and lag time were obtained from the cumulative plots. The effect of the PEs on the flux was evaluated by calculating the enhancement index (EI). Independent sample t-test (IBM SPSS PASW Statistics 18) was used to compare the permeation parameters obtained from experiments involving horizontal diffusion cell and MFtC 5. For endoxifen permeation experiments, one-way analysis of variance (ANOVA) with Scheffe post hoc test was used for the comparison of the permeation parameters of endoxifen with or without the different PEs. For all tests, p<0.05 was considered significant.

[2] = Flux through rat skin translated to human skin; assay type: in vitro ADME; settings: translated from the rat skin flux of 6.52 μg/cm^2/hr; limonene as PE in PG
[3] = cited from earlier work
[4] = endoxifen in 60% (v/v) ethanol-phosphate buffer with 0.5% (w/v) oleic acid; cited from earlier work
[5] = Permeation across rat abdominal skin in horizontal diffusion cell (HDC); assay type: in vitro ADME
Protocol: To evaluate the performance characteristics of the MFtC 5, permeation of model compounds (rhodamine B and mangostin) using a horizontal diffusion cell (TK-6H1, Shanghai Kai Kai Technology, China) and a MFtC 5 was compared. Rat abdominal skins were obtained from the National University of Singapore Animal Centre and kept at −80° C. until use. Prior to the permeation studies, the skins were thawed and hair was completely removed with an electrical shaver and hair remover cream (Veet). Subcutaneous fat and connective tissues were also lightly trimmed off. All animal experiments were approved by Institutional Animal Care and Use Committee, National University of Singapore. A 2.0 cm×2.0 cm piece of rat abdominal skin was mounted between the donor and receptor compartments of the horizontal diffusion cell, with the stratum corneum side facing the donor compartment. The effective diffusion area was 1.13 cm^2. Each donor cell contained 4.5 ml of each model compound in propylene glycol (PG) and the receptor cell contained the same volume of PBS. Mangostin was used at a concentration of 2.3 mg/ml and rhodamine B at concentrations of 1 mg/ml and 5 mg/ml. Both compartments were thermostated at 37° C. by means of a surrounding temperature controlled water jacket. In order to minimize evaporation, all cell openings were occluded with parafilm. The fluids in both compartments were maintained in a stirred state by a Teflon coated magnetic stirrer at a speed of 250±1.25 rpm. Samples (1 ml) were withdrawn from the receptor compartment for analysis at specific time intervals. Upon each sample withdrawal, the receptor compartment was immediately replaced by an equal volume of fresh solution. The experiments were performed in triplicates or more. Skin samples from the same rat were used for comparisons between the horizontal diffusion cell and a MFtC 5 to minimise inter-animal variability. All experiments were performed at least three times. The samples were collected at the same time intervals and stored at 4° C. until analysis. During analysis, samples were first centrifuged at 13,000 rpm (Sorvall Biofuge Pico, UK) for 5 min. The supernatant was obtained and analyzed according to their respective assay methods as reported below. Concentration of rhodamine B was determined by fluorescence spectroscopy with a microplate reader (Tecan, Switzerland) at an excitation wavelength (λex)=554 nm and an emission wavelength (λem)=586 nm at ambient temperature. All samples were protected from light to prevent possible light quenching of fluorescence during the assay. Mangostin concentration was determined with a reversed phase HPLC (Hitachi, Japan) using a C18 column (5 μm, 4.6 mm×250 mm; ODS Hypersil, Thermo Scientific) maintained at ambient temperature. The mobile phase comprised of methanol and ultrapure water (90:10, v/v) delivered at a flow rate of 1 ml/min. The UV detector (L-2400, Hitachi, Japan) was operated at a λ=320 nm. Under these conditions, the mangostin peak appeared at a retention time of 6.8 min.

[6] = Permeation across rat abdominal skin in miniaturized flow-through cell (MFtC), validation; assay type: in vitro ADME
Protocol: To evaluate the performance characteristics of the MFtC 5, permeation of model compounds (rhodamine B and mangostin) using a horizontal diffusion cell (TK-6H1, Shanghai Kai Kai Technology, China) and a MFtC 5 was compared. Rat abdominal skins were obtained from the National University of Singapore Animal Centre and kept at −80° C. until use. Prior to the permeation studies, the skins were thawed and hair was completely removed with an electrical shaver and hair remover cream (Veet). Subcutaneous fat and connective tissues were also lightly trimmed off. All animal experiments were approved by Institutional Animal Care and Use Committee, National University of Singapore. Similar conditions were used in the MFtC 5 or MFtC 5 setup. A 1.0 cm×1.0 cm piece of rat abdominal skin was mounted between the donor compartment 220 and the receptor compartment 120 with the stratum corneum side facing the donor compartment 220 of the MFtC 5. In some embodiments, the area and shape of the skin/membrane of the present disclosure can be modified as needed or per application requirements. A sealant or sealing substance or material such as high vacuum grease (Dow Corning, USA) was applied to the donor compartment 220 on the unexposed stratum corneum side, in contact with the receptor compartment 120, to minimize leakage from the donor compartment 220. Other sealants, sealing substances, or high vacuum grease for minimizing leakage from the donor compartment 220 can be selected as needed or per application requirements. […] On the other hand, leakage of the donor solution could be observed when no grease was applied. In an embodiment of the present disclosure, the effective diffusion area was 0.283 cm^2. In some embodiments, the effective diffusion area can be about 0.283 cm^2 to about 0.5 cm^2. In an embodiment of the present disclosure, 70 μl of the donor solution was added into the donor compartment 220. In some embodiments, the volume of the donor solution added to the donor compartment 220 can be about 70 μl to about 300 μl. In an embodiment of the present disclosure, the receptor fluid or receptor solution comprised degassed PBS solution. In some embodiments, the receptor solution of the present disclosure can comprise other solutions such as water, buffers, extracellular fluid, lung lining fluid, gastric fluid, and/or cerebrospinal fluid. In an embodiment of the present disclosure, the flow rate of receptor solution through each diffusion cell 50 can be controlled by an infusion pump system 60, wherein the flow rate can be about 0.20 ml/hr. In some embodiments, the flow rate of receptor solution through each diffusion cell 50 can be reduced or increased to a flow rate of about 0.828 μl/hr to about 1270 ml/hr as needed or per application requirements. An embodiment of a MFtC 5 of the present disclosure was placed in a temperature controlling system such as a water bath 80 maintained at 37° C. using a hot plate to control the temperature. In some embodiments, the temperature can be adjusted as needed or per application requirements. In order to minimize evaporation, the donor compartment 220 and sampling container(s) 70 such as a sampling microfuge tube(s) 70 were occluded with parafilm. The sampling container(s) 70 such as a sampling tube(s) 70 was collected at specific time intervals and replaced by a sampling container(s) 70 such as an empty sampling tube(s) 70 for subsequent collections. The experiments were performed in triplicates or more. In some embodiments, the method of collecting the sample can be modified as needed or per application requirements. Skin samples from the same rat were used for comparisons between the horizontal diffusion cell and a MFtC 5 to minimise inter-animal variability. All experiments were performed at least three times. The samples were collected at the same time intervals and stored at 4° C. until analysis. During analysis, samples were first centrifuged at 13,000 rpm (Sorvall Biofuge Pico, UK) for 5 min. […]

[7] = ENX 2 mg/ml in PG alone (control)
[8] = ENX 2 mg/ml in PG with limonene 0.5% (w/v)
[9] = ENX 2 mg/ml in PG with myristyl lactate 0.5% (w/v)
[10] = ENX 2 mg/ml in PG with oleic acid 0.5% (w/v)
[11] = HDC, donor 1 mg/ml in propylene glycol, rat abdominal skin, mean ± SD
[12] = HDC, donor 5 mg/ml in propylene glycol, rat abdominal skin, mean ± SD
[13] = MFtC, donor 1 mg/ml in propylene glycol, rat abdominal skin, mean ± SD
[14] = MFtC, donor 5 mg/ml in propylene glycol, rat abdominal skin, mean ± SD

**Q.** For `CC/C(=C(\c1ccc(O)cc1)c1ccc(OCCNC)cc1)c1ccccc1` [endoxifen], which Flux [1, 7] is on record?
**A.** 0.65 ± 0.01 μg/cm^2/hr

**Q.** What about the Lag time [1, 7] of the same compound?
**A.** 1.03 ± 1.40 h

**Q.** And the Flux [1, 8]?
**A.** 6.52 μg/cm^2/hr

**Q.** What about the Lag time [1, 8] of the same compound?
**A.** 3.75 ± 2.37 h

**Q.** What about the Flux ([1]; ENX 2 mg/ml in PG with limonene 0.5% (w/v), listed as ENX) of the same compound?
**A.** 6.52 ± 1.41 μg/cm^2/hr

**Q.** What about the Flux [1, 9] of the same compound?
**A.** 5.33 ± 0.13 μg/cm^2/hr

**Q.** What about the Lag time [1, 9] of the same compound?
**A.** 7.62 ± 2.18 h

**Q.** And the Flux [1, 10]?
**A.** 4.09±1.07 μg/cm^2/hr

**Q.** And the Lag time [1, 10]?
**A.** 7.58 ± 4.04 h

**Q.** What about the Flux ([1]; ENX 2 mg/ml in PG with oleic acid 0.5% (w/v), listed as ENX) of the same compound?
**A.** 4.09 ± 1.07 μg/cm^2/hr

**Q.** And the “Enhancement index (EI) = Jss (with enhancer)/Jss (without enhancer)” value (from here on “Enhancement index … (without enhancer)”) ([1]; ENX in PG with limonene 0.5% (w/v) versus PG alone)?
**A.** 9.99

**Q.** What about the “Enhancement index … (without enhancer)” value ([1]; ENX in PG with myristyl lactate 0.5% (w/v) versus PG alone) of the same compound?
**A.** 8.17

**Q.** And the “Enhancement index … (without enhancer)” value ([1]; ENX in PG with oleic acid 0.5% (w/v) versus PG alone)?
**A.** 6.26

**Q.** And the “Flux through human skin” value [2]?
**A.** 2.17 μg/cm^2/hr

**Q.** What about the “log P” value [3] of the same compound?
**A.** 4.94

**Q.** And the “Highest flux reported (Jss)” value [4]?
**A.** 0.22 μg/cm^2/hr

**Q.** Which “log P” value [3] does the source give for `C=C(C)[C@H]1CC=C(C)CC1` [limonene, (R)-(+)-limonene] here?
**A.** 4.83

**Q.** For `COc1c(O)cc2oc3cc(O)c(CC=C(C)C)c(O)c3c(=O)c2c1CC=C(C)C` [mangostin, α-mangostin], which Flux ([5]; rat, 48 h, 2.3 mg/ml) is on record?
**A.** 7.06 ± 1.06 μg/cm^2/hr

**Q.** And the Lag time ([5]; rat, 48 h, 2.3 mg/ml)?
**A.** 7.19 ± 0.47 h

**Q.** What about the Flux ([6]; rat, 48 h, 2.3 mg/ml) of the same compound?
**A.** 8.34 ± 3.40 μg/cm^2/hr

**Q.** And the Lag time ([6]; rat, 48 h, 2.3 mg/ml)?
**A.** 14.5 ± 2.71 h

**Q.** And the “log P” value [3]?
**A.** 6.64

**Q.** With `CCCCCCCCCCCCCCOC(=O)C(C)O` (stereo not shown) [myristyl lactate] as the compound, how does the “log P” value [3] read?
**A.** 6.08

**Q.** With `CCCCCCCC/C=C\CCCCCCCC(=O)O` [oleic acid] as the compound, how does the “log P” value [3] read?
**A.** 7.42

**Q.** For `CC(O)CO` (stereo not shown) [propylene glycol], which “log P” value [3] is on record?
**A.** −1.00

**Q.** Which results are given for `CCN(CC)c1ccc2c(-c3ccccc3C(=O)O)c3ccc(=[N+](CC)CC)cc-3oc2c1.[Cl-]` [rhodamine B]?
**A.** Flux [5, 11]: 0.04 ± 0.03 μg/cm^2/hr; Lag time [5, 11]: 17.7 ± 3.47 h; Flux [5, 12]: 0.07 ± 0.01 μg/cm^2/hr; Lag time [5, 12]: 11.4 ± 3.31 h; Flux [6, 13]: 0.05 ± 0.02 μg/cm^2/hr; Lag time [6, 13]: 22.1 ± 4.07 h; Flux [6, 14]: 0.05 ± 0.02 μg/cm^2/hr; Lag time [6, 14]: 8.35 ± 4.75 h; log P [3]: 2.43
